Measurements as given in ChEMBL document CHEMBL1201862, “PubChem BioAssay data set” (2004).
Where a name gives a salt, the structure may show the parent alone.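 How tested: cells in 96-well plates exposed to compound for 48 hours at five concentrations. Abbreviation: GI50, concentration required for 50% inhibition of growth.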 Active and inactive are the calls of the source. Rule as the data show it: active = GI50 up to about 1.1 µM and inactive = higher.

Key:
Experiment in all cases: growth of human tumour cells (NCI), 48 h
SN12C = test system: SN12C
ACHN = test system: ACHN
MOLT-4 = test system: MOLT-4
UO-31 = test system: UO-31
OVCAR-4 = test system: OVCAR-4
SF-295 = test system: SF-295
CAKI-1 = test system: CAKI-1
RXF 393 = test system: RXF 393
Malme-3M = test system: Malme-3M
IGROV-1 = test system: IGROV-1
TK-10 = test system: TK-10
A498 = test system: A498
NCI-H23 = test system: NCI-H23
HCT-15 = test system: HCT-15
SK-MEL-5 = test system: SK-MEL-5
OVCAR-3 = test system: OVCAR-3
HOP-62 = test system: HOP-62
U-251 = test system: U-251
MCF7 = test system: MCF7
DU-145 = test system: DU-145

Compound | GI50 (SN12C) | GI50 (ACHN) | GI50 (MOLT-4) | GI50 (UO-31) | GI50 (OVCAR-4) | GI50 (SF-295) | GI50 (CAKI-1) | GI50 (RXF 393) | GI50 (Malme-3M) | GI50 (IGROV-1) | GI50 (TK-10) | GI50 (A498) | GI50 (NCI-H23) | GI50 (HCT-15) [µM] | GI50 (SK-MEL-5) | GI50 (OVCAR-3) | GI50 (HOP-62) | GI50 (U-251) | GI50 (MCF7) | GI50 (DU-145)
O=C1OC(CCCl)(c2ccccc2)CC1CN1CCOCC1 (stereo not drawn) | 29.2 µM (inactive) | 32.2 µM (inactive) | 18 µM (inactive) | 68.9 µM (inactive) | 48.4 µM (inactive) | 43 µM (inactive) | 8.49 µM (inactive) | 17.2 µM (inactive) | 18.4 µM (inactive) | 23.6 µM (inactive) | 16.4 µM (inactive) | > 100 µM (inactive) | 8.95 µM (inactive) | 20.9 | 19.7 µM (inactive) | 17.8 µM (inactive) | 50.5 µM (inactive) | > 100 µM (inactive) |  | 
CCN(CC)C(=O)Cn1c2c(c3ccccc31)CCCC2 | > 100 µM (inactive) | 65.2 µM (inactive) |  | 23.2 µM (inactive) | > 10 µM (inactive) | 49.8 µM (inactive) | 57 µM (inactive) |  | > 100 µM (inactive) | > 100 µM (inactive) | > 100 µM (inactive) | > 100 µM (inactive) | 45.4 µM (inactive) | 74.6 | 64 µM (inactive) | > 10 µM (inactive) | > 100 µM (inactive) |  | > 100 µM (inactive) | 
O=C(NCCn1ccnn1)Nc1ccccc1 | > 100 µM (inactive) | > 100 µM (inactive) | > 100 µM (inactive) |  |  | > 100 µM (inactive) | > 100 µM (inactive) |  | > 100 µM (inactive) | > 100 µM (inactive) | > 100 µM (inactive) |  | > 100 µM (inactive) | > 100 | > 100 µM (inactive) |  | > 100 µM (inactive) | > 100 µM (inactive) | > 100 µM (inactive) | > 100 µM (inactive)
O=C(/N=C(/Nc1ccccc1)SCCS/C(=N\C(=O)c1ccccc1)Nc1ccccc1)c1ccccc1 | 63.1 µM (inactive) | 55.7 µM (inactive) | 38.7 µM (inactive) | 32.9 µM (inactive) | 42.1 µM (inactive) | 58.9 µM (inactive) | 33.7 µM (inactive) | 29.6 µM (inactive) | > 100 µM (inactive) | > 100 µM (inactive) | > 100 µM (inactive) | 58.7 µM (inactive) | 59.8 µM (inactive) | 54.8 | 48.3 µM (inactive) | 67.9 µM (inactive) | 86.5 µM (inactive) | 79.8 µM (inactive) |  | 
O=C1C2C(C(=O)N1Cc1ccccc1)N(Cc1ccccc1)C(=O)N2Cc1ccccc1 (stereo not drawn) | > 100 µM (inactive) | > 100 µM (inactive) | > 100 µM (inactive) | > 100 µM (inactive) | > 100 µM (inactive) | > 100 µM (inactive) | > 100 µM (inactive) | > 100 µM (inactive) | > 100 µM (inactive) | > 100 µM (inactive) | > 100 µM (inactive) | > 100 µM (inactive) | > 100 µM (inactive) | > 100 | > 100 µM (inactive) | > 100 µM (inactive) | > 100 µM (inactive) | > 100 µM (inactive) |  | 
CCc1cccc(C)c1NC(=O)CCc1nnc(SC)o1 | > 100 µM (inactive) | > 100 µM (inactive) | > 100 µM (inactive) | > 100 µM (inactive) | > 100 µM (inactive) | > 100 µM (inactive) | > 100 µM (inactive) | > 100 µM (inactive) | > 100 µM (inactive) | > 100 µM (inactive) | > 100 µM (inactive) | > 100 µM (inactive) | > 100 µM (inactive) | > 100 | > 100 µM (inactive) | > 100 µM (inactive) | > 100 µM (inactive) | > 100 µM (inactive) |  | 
O=S(=O)(O)c1ccc2c(/N=N\c3ccc(F)cc3)c(O)c(S(=O)(=O)O)cc2c1 | > 100 µM (inactive) | > 100 µM (inactive) | > 100 µM (inactive) | > 100 µM (inactive) | > 100 µM (inactive) | > 100 µM (inactive) | > 100 µM (inactive) | > 100 µM (inactive) | > 100 µM (inactive) | > 100 µM (inactive) | > 100 µM (inactive) | > 100 µM (inactive) | > 100 µM (inactive) | > 100 | > 100 µM (inactive) | > 100 µM (inactive) | > 100 µM (inactive) | > 100 µM (inactive) |  | > 100 µM (inactive)
Nc1cccc2c1-c1c(cccc1[N+](=O)[O-])C2=O | > 100 µM (inactive) |  | > 100 µM (inactive) | 0.108 µM (active) | > 100 µM (inactive) | > 100 µM (inactive) | > 100 µM (inactive) | > 100 µM (inactive) | > 100 µM (inactive) | > 100 µM (inactive) | > 100 µM (inactive) | > 100 µM (inactive) | > 100 µM (inactive) | > 100 | > 100 µM (inactive) | > 100 µM (inactive) | > 100 µM (inactive) | > 100 µM (inactive) |  | 
O=C1NC2(CCCC2)/C(=N\O)C12CCCC2 | > 100 µM (inactive) | > 100 µM (inactive) | > 100 µM (inactive) | > 100 µM (inactive) | > 100 µM (inactive) | > 100 µM (inactive) | > 100 µM (inactive) | > 100 µM (inactive) | > 100 µM (inactive) | > 100 µM (inactive) | > 100 µM (inactive) | > 100 µM (inactive) | > 100 µM (inactive) | > 100 | > 100 µM (inactive) | > 100 µM (inactive) | > 100 µM (inactive) | > 100 µM (inactive) |  | 
O=c1/c(=C/c2ccc(Cl)cc2Cl)sc2nc3ccccc3n12 | > 100 µM (inactive) | > 100 µM (inactive) | > 100 µM (inactive) | > 100 µM (inactive) | > 100 µM (inactive) | > 100 µM (inactive) | > 100 µM (inactive) | > 100 µM (inactive) | > 100 µM (inactive) | > 100 µM (inactive) | > 100 µM (inactive) | > 100 µM (inactive) | > 100 µM (inactive) | > 100 | > 100 µM (inactive) | > 100 µM (inactive) | > 100 µM (inactive) | > 100 µM (inactive) |  | 
CO[C@H]1CC[C@]2(C)C3=CC[C@@]4(C)C(CC[C@@H]4C(C)CC[C@@H](C)C(C)C)C(=CCC2C1)O3 (stereo partly drawn) | > 25 µM (inactive) | > 25 µM (inactive) | > 25 µM (inactive) | > 25 µM (inactive) | > 25 µM (inactive) | > 25 µM (inactive) | 10.2 µM (inactive) | > 25 µM (inactive) | > 25 µM (inactive) | > 25 µM (inactive) | > 25 µM (inactive) | > 25 µM (inactive) | > 7.91 µM (inactive) | > 25 | > 25 µM (inactive) | > 25 µM (inactive) | > 25 µM (inactive) | > 25 µM (inactive) |  | 
CC(C)/C=C1\CCC(CN2CCCC2)C1=O (stereo not drawn) | 18.7 µM (inactive) | 18.2 µM (inactive) | 3.63 µM (inactive) | 18.5 µM (inactive) | 17.6 µM (inactive) | 42.6 µM (inactive) | 5.16 µM (inactive) | 16 µM (inactive) | 6.28 µM (inactive) | 25.7 µM (inactive) | 10.7 µM (inactive) | > 42.3 µM (inactive) | 16.7 µM (inactive) | 5.05 | 17.1 µM (inactive) | 17.4 µM (inactive) | > 87.5 µM (inactive) | 14.6 µM (inactive) |  | 
Cc1nc2ccc(S(=O)(=O)Nc3ccc(Cl)cc3)cc2c(=O)n1NC(=O)CNc1ccc(Cl)cc1 | > 100 µM (inactive) | > 100 µM (inactive) | > 100 µM (inactive) | > 100 µM (inactive) | > 100 µM (inactive) | > 100 µM (inactive) | > 100 µM (inactive) |  | > 100 µM (inactive) | > 100 µM (inactive) | > 100 µM (inactive) |  | > 100 µM (inactive) | > 100 |  | > 100 µM (inactive) | > 100 µM (inactive) | > 100 µM (inactive) | > 100 µM (inactive) | > 100 µM (inactive)
COc1cccc(/C=N/C23CC4CC(CC(C4)C2)C3)c1 | > 100 µM (inactive) | > 100 µM (inactive) | > 100 µM (inactive) | > 100 µM (inactive) | > 100 µM (inactive) | > 100 µM (inactive) | > 100 µM (inactive) | > 100 µM (inactive) | > 100 µM (inactive) | > 100 µM (inactive) | > 100 µM (inactive) | > 100 µM (inactive) | > 100 µM (inactive) | > 100 | > 100 µM (inactive) | > 100 µM (inactive) | > 100 µM (inactive) | > 100 µM (inactive) |  | 
O=C1C(=Cc2ccc(O)cc2)N=C(c2ccccc2)N1n1c(-c2ccccc2)nc2ccccc2c1=O | > 10 µM (inactive) |  | 78.7 µM (inactive) | > 100 µM (inactive) |  | > 100 µM (inactive) | > 100 µM (inactive) |  | > 100 µM (inactive) | > 100 µM (inactive) | > 100 µM (inactive) |  | 71.6 µM (inactive) | 38.9 | > 100 µM (inactive) |  | > 100 µM (inactive) |  | 30.9 µM (inactive) | > 100 µM (inactive)
Cc1nccc2c1[nH]c1cc(O)ccc12 [HARMOL HYDROCHLORIDE] | 76.4 µM (inactive) | 31.8 µM (inactive) | 23.7 µM (inactive) | 37.6 µM (inactive) | > 100 µM (inactive) | 33 µM (inactive) | 41.1 µM (inactive) | > 100 µM (inactive) | 44.7 µM (inactive) | 45.8 µM (inactive) | > 100 µM (inactive) | 63.4 µM (inactive) | 76.7 µM (inactive) | 61.4 | 69.2 µM (inactive) | 42.5 µM (inactive) | 91.6 µM (inactive) | > 100 µM (inactive) |  | 
